In US20140377340A1, “HLA-DR BINDING PEPTIDES AND THEIR USES” (priority 2007, published 2014):

How the values were obtained:
[1] = tested on: 15 different HLA-DR molecules; experiment: HLA-DR binding assays, panel of 15 different HLA-DR molecules (breadth of binding); conditions: number of the 15 HLA-DR molecules bound (binders: 1000 nM or better)
[2] = molecular target: T1, purified HLA DRB1*0405 (Homo sapiens, UniProt P01903+P01911, A100R/A169T/D86S/F76Y/I96L/K127E/L162R/M171V/N62H/P40V/Q125Y/R42H/S133A/S149N/S66Y/V115G/V209L/W38E); experiment: HLA-DR radioligand binding inhibition assay, DRB1*0405; conditions: IC50 nM purified HLA DRB1 *0405, purified HLA DRB1*0405
T1 construct: purified from EBV transformed homozygous cell lines or single MHC allele transfected 721.221, C1R, or fibroblast lines; made in house
Procedure: (§1) Instead, wells of an opaque white 96-well Optiplate (Packard) are coated with 3 μg (100 μl@ 30 μg/ml) of HLA-specific antibody (Ab) that “capture” complexes of radiolabeled MHC and unlabeled peptide transferred from the molecular binding assay plate in 100 μl of 0.05% NP40/PBS. After a 3-hour incubation period, the supernatant is decanted and scintillation fluid (Microscint 20) added. Captured complexes are then measured on a microplate scintillation and luminescence counter (TopCount NXTTM; Packard).
(§2) HLA-DR purification. Fifteen distinct HLA-DR molecules were used in quantitative assays to measure the binding of peptides to solubilized HLA-DR molecules. […] Briefly, columns of inactivated Sepharose CL4B and Protein A Sepharose were used as pre-columns. HLA-DR molecules were captured by passage of lysates over LB3.1 monoclonal antibody (anti-HLA-DRA) columns. Antibody columns were washed with 10 mM Tris-HCL, pH8.0 with 1% (v/v) NP-40, followed by PBS containing 0.4% (w/v) n-octylglucoside.
(§3) Briefly, 1-10 nM of radiolabeled peptide was co-incubated for 2 days at either room temperature or 37° C. with 1 μM to 1 nM purified HLA-DR molecules in the presence of a cocktail of protease inhibitors. Assays were performed at various pH conditions, ranging from pH 4 to pH 7. […] After incubation, the percentage of HLA-DR-bound radioactivity is determined by capturing HLA-DR/peptide complexes on Optiplates (Packard Instruments, Meriden, Conn.) coated with the LB3.1 antibody and determining bound counts per minute using the TopCount microscintillation counter (Packard Instruments).

[3] = molecular target: T2, purified HLA DRB1*1501 (Homo sapiens, UniProt P01903+P01911); experiment: HLA-DR radioligand binding inhibition assay, DRB1*1501
T2 construct: purified from EBV transformed homozygous cell lines or single MHC allele transfected 721.221, C1R, or fibroblast lines; made in house
Procedure: as §1, §2, §3

[4] = molecular target: T3, purified HLA DRB1*0401 (Homo sapiens, UniProt P01903+P01911, A100K/A169T/F76Y/I96L/K127E/L162R/M171V/N62H/P40V/Q125Y/R42H/S133A/S149N/S66Y/V115G/V209L/W38E); experiment: HLA-DR radioligand binding inhibition assay, DRB1*0401; conditions: IC50 nM purified HLA DRB1 *0401, purified HLA DRB1*0401
T3 construct: purified from EBV transformed homozygous cell lines or single MHC allele transfected 721.221, C1R, or fibroblast lines; made in house
Procedure: as §1, §2, §3

[5] = molecular target: T4, purified HLA DRB1*1101 (Homo sapiens, UniProt P01903+P01911, A100R/A169T/A87E/I96F/K41T/L162R/M171V/P40S/Q125H/Q178H/Q39Y/Q99D/R42S/S66Y/T262R/V115G/W38E); experiment: HLA-DR radioligand binding inhibition assay, DRB1*1101; conditions: IC50 nM purified HLA DRB1 *1101, purified HLA DRB1*1101
T4 construct: purified from EBV transformed homozygous cell lines or single MHC allele transfected 721.221, C1R, or fibroblast lines; made in house
T4 sequence (P01903 26-254, other chains not shown): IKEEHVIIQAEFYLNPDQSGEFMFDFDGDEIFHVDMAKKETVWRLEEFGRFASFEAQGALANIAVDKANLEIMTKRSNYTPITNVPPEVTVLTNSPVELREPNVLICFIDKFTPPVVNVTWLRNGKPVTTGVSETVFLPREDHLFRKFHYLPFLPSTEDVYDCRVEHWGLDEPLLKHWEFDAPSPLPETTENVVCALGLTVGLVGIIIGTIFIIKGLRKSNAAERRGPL
Procedure: as §1, §2, §3

[6] = molecular target: T5, purified HLA DRB5*0101 (Homo sapiens, UniProt P01903+Q30154); experiment: HLA-DR radioligand binding inhibition assay, DRB5*0101; conditions: IC50 nM purified HLA DRB5 *0101, purified HLA DRB5*0101
T5 construct: purified from EBV transformed homozygous cell lines or single MHC allele transfected 721.221, C1R, or fibroblast lines; made in house
Procedure: as §1, §2, §3

| Compound | Total XRN [1] | IC50 [3] [nM] | also measured |
| --- | --- | --- | --- |
| CC[C@H](C)[C@H](NC(=O)[C@@H](NC(=O)[C@@H](NC(=O)[C@H](Cc1ccccc1)NC(=O)[C@H](CCCNC(=N)N)NC(=O)[C@H](CCC(N)=O)NC(=O)[C@@H]1CCCN1C(=O)[C@H](CC(=O)O)NC(=O)[C@H](CCCNC(=N)N)NC(=O)[C@H](C)NC(=O)[C@H](CCSC)NC(=O)[C@H](CCCNC(=N)N)NC(=O)[C@H](CO)NC(=O)[C@@H](N)Cc1ccccc1)C(C)C)C(C)C)C(=O)N[C@@H](CCC(N)=O)C(=O)O [Peptide 9019.0004] | 10 |  |  |
| CC(C)C[C@H](NC(=O)[C@H](CO)NC(=O)[C@H](C)NC(=O)[C@H](CC(N)=O)NC(=O)[C@@H](NC(=O)[C@@H]1CCCN1C(=O)[C@H](CC(C)C)NC(=O)[C@H](Cc1ccc(O)cc1)NC(=O)[C@@H](NC(=O)[C@@H](N)CC(C)C)[C@@H](C)O)[C@@H](C)O)C(=O)N[C@@H](CO)C(=O)N[C@@H](Cc1ccccc1)C(=O)N[C@@H](CC(C)C)C(=O)N[C@@H](CCC(N)=O)C(=O)N[C@@H](CC(=O)O)C(=O)O [Peptide 9019.0031] | 12 |  |  |
| CC[C@H](C)[C@H](NC(=O)[C@H](CCC(=O)O)NC(=O)[C@@H](NC(=O)[C@H](CC(C)C)NC(=O)[C@H](CO)NC(=O)[C@H](CCCNC(=N)N)NC(=O)[C@H](CC(C)C)NC(=O)[C@H](CCC(N)=O)NC(=O)[C@H](CC(C)C)NC(=O)[C@H](CCC(=O)O)NC(=O)[C@H](CCCNC(=N)N)NC(=O)[C@H](CC(C)C)NC(=O)CNC(=O)CNC(=O)[C@@H]1CCCN1)[C@@H](C)O)C(=O)O [Peptide 9019.0038] |  | 4410 | IC50 [2]: 110 nM |
| CC[C@H](C)[C@H](NC(=O)[C@H](CCCNC(=N)N)NC(=O)CNC(=O)[C@H](CCCNC(=N)N)NC(=O)[C@@H](NC(=O)[C@@H](NC(=O)[C@H](CCC(N)=O)NC(=O)[C@H](CC(C)C)NC(=O)[C@H](CC(N)=O)NC(=O)[C@H](CCC(N)=O)NC(=O)[C@H](Cc1ccccc1)NC(=O)[C@@H](NC(=O)[C@H](CO)NC(=O)[C@@H](N)CC(C)C)C(C)C)C(C)C)[C@@H](C)CC)C(=O)N[C@@H](CC(C)C)C(=O)O [Peptide 9019.0052] | 14 |  |  |
| CC(C)[C@H](NC(=O)[C@H](Cc1ccccc1)NC(=O)[C@H](Cc1c[nH]c2ccccc12)NC(=O)[C@H](CO)NC(=O)[C@H](Cc1ccc(O)cc1)NC(=O)[C@@H](N)CCC(N)=O)C(=O)N[C@@H](CC(N)=O)C(=O)NCC(=O)N[C@H](C(=O)N[C@@H](Cc1ccccc1)C(=O)N[C@@H](CCC(N)=O)C(=O)N[C@@H](CCC(N)=O)C(=O)N[C@@H](CO)C(=O)N[C@H](C(=O)N[C@@H](CCC(N)=O)C(=O)O)[C@@H](C)O)[C@@H](C)O [Peptide 9019.0122] |  | > 20000 | IC50 [4]: 21 nM; IC50 [5]: 230 nM |
| CC[C@H](C)[C@H](NC(=O)[C@@H](NC(=O)[C@@H](NC(=O)[C@@H](NC(=O)[C@@H](NC(=O)[C@@H](NC(=O)[C@@H](N)CCCNC(=N)N)[C@@H](C)O)[C@@H](C)O)C(C)C)[C@@H](C)O)[C@@H](C)O)C(=O)N[C@H](C(=O)N[C@H](C(=O)N[C@@H](Cc1ccc(O)cc1)C(=O)N[C@@H](C)C(=O)N[C@@H](CCC(=O)O)C(=O)N1CCC[C@H]1C(=O)N1CCC[C@H]1C(=O)N[C@@H](CCCCN)C(=O)O)C(C)C)[C@@H](C)O [Peptide 9019.0124] |  | 83 | IC50 [2]: 32 nM; IC50 [5]: > 20000 nM |
| CC[C@H](C)[C@H](NC(=O)[C@@H](NC(=O)[C@@H]1CCCN1C(=O)[C@H](CC(=O)O)NC(=O)[C@@H](N)CO)C(C)C)C(=O)N[C@@H](CC(C)C)C(=O)N[C@@H](CC(N)=O)C(=O)N[C@H](C(=O)N[C@@H](CC(C)C)C(=O)N[C@@H](Cc1ccc(O)cc1)C(=O)NCC(=O)N1CCC[C@H]1C(=O)N[C@@H](CC(=O)O)C(=O)N[C@@H](CC(=O)O)C(=O)N1CCC[C@H]1C(=O)O)C(C)C [Peptide 9019.0127] |  | 5700 | IC50 [6]: > 20000 nM |
